Legend:
Mu-type opioid receptor = Mu-type opioid receptor (Homo sapiens, UniProt P35372)
Adenosine receptor A3 = biological target: T1, Adenosine receptor A3 (Homo sapiens, UniProt P0DMS8)
T1 sequence (P0DMS8 whole entry): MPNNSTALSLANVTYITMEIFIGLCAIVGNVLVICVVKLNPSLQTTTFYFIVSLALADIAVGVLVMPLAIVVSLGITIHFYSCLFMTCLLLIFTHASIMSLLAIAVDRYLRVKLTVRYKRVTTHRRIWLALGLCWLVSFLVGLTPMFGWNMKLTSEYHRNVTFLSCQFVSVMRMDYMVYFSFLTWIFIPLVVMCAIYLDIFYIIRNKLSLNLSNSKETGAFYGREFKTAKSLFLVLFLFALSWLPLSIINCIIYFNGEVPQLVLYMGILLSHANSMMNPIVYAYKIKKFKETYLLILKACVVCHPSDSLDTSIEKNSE

[1] = biological target: Sodium-dependent serotonin transporter (Homo sapiens, UniProt P31645)
Sequence of Sodium-dependent serotonin transporter (P31645 whole entry): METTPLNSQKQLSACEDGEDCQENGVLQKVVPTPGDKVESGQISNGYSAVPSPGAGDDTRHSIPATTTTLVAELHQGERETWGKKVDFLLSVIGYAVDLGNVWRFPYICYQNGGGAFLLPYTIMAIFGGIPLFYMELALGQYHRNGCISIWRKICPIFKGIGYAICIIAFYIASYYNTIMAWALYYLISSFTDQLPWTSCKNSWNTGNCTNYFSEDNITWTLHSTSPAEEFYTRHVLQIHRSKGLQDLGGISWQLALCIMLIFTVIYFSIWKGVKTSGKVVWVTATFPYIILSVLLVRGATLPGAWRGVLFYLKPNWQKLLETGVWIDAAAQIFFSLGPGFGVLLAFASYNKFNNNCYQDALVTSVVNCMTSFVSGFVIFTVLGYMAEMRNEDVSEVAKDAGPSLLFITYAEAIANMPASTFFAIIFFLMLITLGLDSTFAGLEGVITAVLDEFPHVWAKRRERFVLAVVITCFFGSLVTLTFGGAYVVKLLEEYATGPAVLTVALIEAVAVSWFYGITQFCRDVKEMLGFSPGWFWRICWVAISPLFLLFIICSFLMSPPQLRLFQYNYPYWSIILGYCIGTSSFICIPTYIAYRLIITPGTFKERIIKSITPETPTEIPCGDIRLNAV
Note: assay procedure not described here.

Sequence of Mu-type opioid receptor (P35372 whole entry): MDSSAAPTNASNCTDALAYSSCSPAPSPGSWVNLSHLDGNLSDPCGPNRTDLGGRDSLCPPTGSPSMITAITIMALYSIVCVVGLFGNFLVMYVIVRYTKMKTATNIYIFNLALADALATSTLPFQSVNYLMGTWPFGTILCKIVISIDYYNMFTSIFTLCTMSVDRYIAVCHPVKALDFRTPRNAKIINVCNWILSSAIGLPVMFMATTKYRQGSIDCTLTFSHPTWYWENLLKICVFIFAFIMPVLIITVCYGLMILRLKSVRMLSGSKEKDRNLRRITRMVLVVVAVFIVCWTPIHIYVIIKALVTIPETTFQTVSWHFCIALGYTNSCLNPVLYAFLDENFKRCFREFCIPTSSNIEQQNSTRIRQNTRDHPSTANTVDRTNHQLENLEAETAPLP

| Compound | AC50 (Mu-type opioid receptor) | AC50 (Adenosine receptor A3) | AC50 [1] |
| --- | --- | --- | --- |
| Cc1cc2c(cc1S(N)(=O)=O)S(=O)(=O)CCC2 | > 30 µM | > 30 µM | > 30 µM |
| O=C(O)[C@@H]1C[C@@H](O)CN1 | > 10 µM | > 30 µM | > 30 µM |
| CC1(C)S[C@@H]2[C@H](/N=C/N3CCCCCC3)C(=O)N2[C@H]1C(=O)O [AMDINOCILLIN] | > 30 µM | > 30 µM | > 30 µM |
| CC(=O)[C@]1(N)Cc2c(O)c3c(c(O)c2[C@@H](O[C@H]2C[C@H](O)[C@H](O)CO2)C1)C(=O)c1ccccc1C3=O [AMRUBICIN] | > 30 µM | > 30 µM | > 30 µM |
| NC(=O)[C@@H]1CC[C@@H]2CN1C(=O)N2OS(=O)(=O)O [AVIBACTAM] | > 30 µM | > 30 µM | > 30 µM |
| CC(C)(C)NC(=O)N[C@H](C(=O)N1C[C@H]2[C@@H]([C@H]1C(=O)NC(CC1CCC1)C(=O)C(N)=O)C2(C)C)C(C)(C)C (some centres undefined) [BOCEPREVIR] | > 30 µM | > 30 µM | > 30 µM |
| Cc1ncc2c(c1O)COC2c1ccc(Cl)cc1 (centres undefined) [CICLETANINE] | > 30 µM | > 30 µM | > 30 µM |
| Cc1cn([C@H]2O[C@@H](CO)[C@H](O)[C@H]2F)c(=O)[nH]c1=O [CLEVUDINE] | > 30 µM | > 30 µM | > 30 µM |
| N#Cc1ccc(Oc2ccc3c(c2)COB3O)cc1 [CRISABOROLE] | > 30 µM | > 30 µM | > 30 µM |
| CC(=O)[C@H]1CC[C@H]2[C@@H]3C=CC4=CC(=O)CC[C@@]4(C)[C@@H]3CC[C@]12C [DYDROGESTERONE] | > 30 µM | > 30 µM | > 30 µM |
| CC(=O)O[C@H]1Cc2ccccc2N(C(N)=O)c2ccccc21 [ESLICARBAZEPINE ACETATE] | > 30 µM | > 30 µM | > 30 µM |
| Cc1ccc(S(=O)(=O)NC(=O)NC2CCCCC2)cc1 [GLYCYCLAMIDE] | > 30 µM | 12.7 µM | > 30 µM |
| CN1CCCN(C(c2ccccc2)c2ccc(Cl)cc2)CC1 (centres undefined) [HOMOCHLORCYCLIZINE] | 7.4 µM | > 30 µM | 2.98 µM |
| CC(=O)OCC(=O)[C@@]1(O)CC[C@H]2[C@@H]3CCC4=CC(=O)CC[C@]4(C)[C@H]3[C@@H](O)C[C@@]21C [HYDROCORTISONE ACETATE] | > 30 µM | > 30 µM | > 30 µM |
| CC(COc1ccccc1)NC(C)C(O)c1ccc(O)cc1 (centres undefined) [ISOXSUPRINE] | 8.69 µM | > 30 µM | 5.55 µM |
| Cc1oc(=O)oc1COC(=O)[C@@H]1N2C(=O)[C@@H](NC(=O)[C@H](N)c3ccccc3)[C@H]2SC1(C)C [LENAMPICILLIN] | > 30 µM | > 30 µM | > 30 µM |
| COc1ccc(OC)c(C(O)C(C)N)c1 (centres undefined) [METHOXAMINE] | > 30 µM | > 30 µM | > 30 µM |
| CC1(CCN2CCCCC2)C(=O)CCc2ccccc21 (centres undefined) [NEPINALONE] | > 30 µM | > 30 µM | > 30 µM |
| COc1cccc(C(=O)CCN[C@@H](C)[C@H](O)c2ccccc2)c1 [OXYFEDRINE] | 2.7 µM | > 30 µM | 4.77 µM |
| CC[N+](C)(CC)CCOC(=O)C(O)(c1ccccc1)C1CCCCC1 (centres undefined) [OXYPHENONIUM] | > 30 µM | > 30 µM | > 30 µM |
| C[C@@H]1C[C@H]2[C@@H]3C[C@H](F)C4=CC(=O)C=C[C@]4(C)[C@H]3[C@@H](O)C[C@]2(C)[C@@]1(O)C(=O)CO [PARAMETHASONE] | > 30 µM | > 30 µM | > 30 µM |
| CCC[C@H](N[C@@H](C)C(=O)N1[C@H](C(=O)O)C[C@@H]2CCCC[C@@H]21)C(=O)OCC [PERINDOPRIL] | > 30 µM | > 30 µM | > 30 µM |
| N[C@@H](Cc1ccccc1)C(=O)O [PHENYLALANINE] | > 30 µM | > 30 µM | > 30 µM |
| CCCn1cnc2c1c(=O)n(CCCCC(C)=O)c(=O)n2C [PROPENTOFYLLINE] | > 30 µM | > 30 µM | > 30 µM |
| Clc1ccc(C(Cn2ccnc2)OCc2csc3c(Cl)cccc23)c(Cl)c1 (centres undefined) [SERTACONAZOLE] | 3.59 µM | 1.63 µM | 2.89 µM |
| CC(OCCN1CCCCCC1)(c1ccccc1)c1ccc(Cl)cc1 (centres undefined) [SETASTINE] | 3.66 µM | > 30 µM | 21 µM |
| CCCSc1nc(N[C@@H]2C[C@H]2c2ccc(F)c(F)c2)c2nnn([C@@H]3C[C@H](OCCO)[C@@H](O)[C@H]3O)c2n1 [TICAGRELOR] | > 30 µM | 0.106 µM | > 30 µM |
| c1ccc2c(SC3=NCCN3)c[nH]c2c1 [TINAZOLINE] | > 30 µM | > 30 µM | > 30 µM |

— ChEMBL document CHEMBL5291721, “A preclinical secondary pharmacology resource illuminates target-adverse drug reaction associations of marketed drugs” (Nat Commun, 2023)
